Measured values taken from ChEMBL document CHEMBL3244087, “Ergoline congeners as potential inhibitors of prolactin release. 3. Derivatives of 3-phenylpiperidine” (1977).

These molecules were tested on Rattus norvegicus (assay: Inhibition of prolactin release in reserpinized rat assessed as reduction in serum prolactin level at 2 mg, ip after 1 hr post dose by radioimmunoassay relative to untreated control).
Type: functional

In order of rising “inhibition (INH)” value:
1. COc1cc(C2CC(CC#N)CN(C)C2)c(OC)cc1C (stereo unspecified)  -13%
2. CCOC(=O)C1=CC(c2cc(OC)c(C)cc2OC)CN(C)C1 (stereo unspecified)  -5%
3. COc1cc(C2CC(CO)CN(C)C2)c(OC)cc1C (stereo unspecified)  -2%
4. CCOC(=O)C1CC(c2cc(OC)c(C)cc2OC)CN(C)C1 (stereo unspecified)  5%

Each molecule was assayed on Rattus norvegicus (assay: Inhibition of prolactin release in reserpinized rat assessed as reduction in serum prolactin level at 1 mg, ip after 1 hr post dose by radioimmunoassay relative to untreated control).
Type: functional

In order of rising “inhibition (INH)” value:
1. CCOC(=O)C1CN(C)CC(c2cc(OC)c(C)cc2OC)C1=O (stereo unspecified)  22%
2. CN1CCc2cccc3c2[C@H]1Cc1ccc(O)c(O)c1-3 [APOMORPHINE]  29%
